Assays:
Assay type in all cases: physicochemical
[1] = Solubility test of the additive alone in dichloromethane/methanol mixed solvent (visual, after 4 days); conditions: for Solubility S0 (solids weight concentration at the dissolution limit): CH2Cl2/CH3OH 87/13
Experimental: The solubility of the functional additives was measured as follows.
1. Solutions were prepared by adjusting each concentration in a 50 cc screw cap bottle.
2. Allowed to stand at room temperature for 4 days. Here, the results of the solubility changed between 1 day and 4 days in some cases, and evaluation of the solubility was carried out after 4 days as a time when equilibrium was reached.
3. Samples were prepared in the same manner at other temperatures (20° C., 35° C.), and the solubility after allowing to stand for 4 days was visually inspected.
Predetermined amounts of Example Compounds I-(51) and I-(2) were weighed into a mixed solvent of dichloromethane and methanol, and the solubility was measured by changing the mixing ratio of the organic solvents.
The solubility (solids weight concentration at the dissolution limit was calculated as (C1+C2)/2 when the concentration limit at which it could be dissolved was C1 and the concentration limit at which it could not be dissolved was C2) of the retardation control agent in a mixed solvent having an initial methylene chloride/methanol composition ratio of 87/13 was defined as S0, and the solubility of the retardation control agent when the solvent composition changed, during drying, to 74/26 where the methanol wt % was the maximum was defined as S1. The temperature at which the solubility was measured is denoted by the figure in brackets.

[2] = Measurement of micro heat of solution (multi-purpose calorimeter MPC-110); conditions: for Degree of stabilization: Table 15; for Heat of solution ΔH0: solvent alone, 26.0° C.
Experimental: (2 Measurement of Micro Heat of Solution)
The heat of solution (dissolution enthalpy ΔH) of functional additives was measured as follows, using a multi-purpose calorimeter (MPC-110) manufactured by Tokyo Rikou as a micro heat of solution measuring instrument.
1. Solvent liquids and concentrated solutions were prepared beforehand in 1 L bottles.
2. Preparation of ampoule tubes
(1) Additives (powdered solid) were ground by a mortar and the granules were made uniform.
(2) A required amount (252 mg) of the additive to be measured was weighed into an ampoule tube for measurement of the micro heat of solution.
(3) The neck of the ampoule tube was heated sufficiently by a gas burner so as to seal the ampoule tube.
3. 50 g of the prepared solvent liquid or the concentrated solution was weighed into a measuring vessel. This amount was selected as an amount sufficient to immerse the ampoule tube in the solvent liquid when set in the measuring instrument.
4. The ampoule tube was set in the measuring instrument, which was equipped with an ampoule sealing mechanism, the measuring vessel was hermetically sealed with the ampoule sealing mechanism after confirming that the ampoule tube was immersed in the solvent liquid, it was placed in a constant temperature bath (26.0° C.), and stirring was started.
5. After confirming that the measuring instrument placed in the constant temperature bath had reached equilibrium temperature (about 8 to 12 hours) the ampoule tube was broken so as to mix the additive with the solvent liquid or the concentrated solution.
6. The total amount of heat generated was recorded.
7. The Joule's heat generated was measured by applying a known voltage to the measurement system for an appropriate time, and the recorded chart area for each measurement cell was calibrated using a known amount of heat.
8. The heat of solution of the sample was calculated from the Joule's heat and the measured sample area.
Shown in Table 11 are the solvent composition (wt %) and the solids composition (parts by weight) of the mother liquor when measuring the heat of solution, the type of retardation control agent sealed in the ampoule tube (Example Compounds I-(51) or I-(2)), and the results of measurement of the heat of solution.
The identification symbols of elements constituting the system are as follows: a denotes triacetylcellulose/plasticizer, b denotes triacetylcellulose, and c denotes plasticizer. For example, 2-87a denotes that the retardation control agent is the Example Compound I-(2), the solvent composition (wt %) is dichloromethane/methanol=87/13, and the solids constituting the system are triacetylcellulose and the plasticizer.
The heat of solution ΔH0 denotes the heat of solution (heat absorption) generated when there is no solid in the system (before breaking the ampoule tube) and the retardation control agent is dissolved in a solvent alone. […] The solids concentration of the system when saturation starts is defined as the saturation heat of solution solids concentration (wt %).
In all cases, when the solids concentration of the system is increased, the heat of solution either remains unchanged from that at a solids concentration of 0 wt % (the saturation heat of solution solids concentration is 0) or decreases and becomes saturated. […] This degree of stabilization is expressed as ΔH0−ΔHs, which is the decrease in the heat of solution.

[3] = Solubility test of the additive alone in dichloromethane/methanol mixed solvent (visual, after 4 days)
[4] = 87/13, solids b: triacetylcellulose only
[5] = 87/13, solids c: plasticizer only

## COc1ccc(Nc2nc(Nc3cccc(C)c3)nc(Nc3cccc(C)c3)n2)cc1 [Example Compound I-(2)]
[1]; 20° C., 87/13 vs 74/26
  Ratio S1/S0: 0.636
[1]; 20° C.
  Solubility S0 (solids weight concentration at the dissolution limit): 27.5 wt %
[1]; 25° C., 87/13 vs 74/26
  Ratio S1/S0: 0.636
[1]; 35° C., 87/13 vs 74/26
  Difference S0 − S1: 10 wt %
  Ratio S1/S0: 0.692
[1]; 35° C., CH2Cl2/CH3OH 74/26
  Solubility S1 (solids weight concentration at the dissolution limit): 22.5 wt %
[1]; 35° C.
  Solubility S0 (solids weight concentration at the dissolution limit): 32.5 wt %
[2]; 50/50, solids a
  Degree of stabilization (ΔH0 − ΔHs): 0 kJ/mol
  Saturation heat of solution solids concentration: 0 wt %
[2]; 50/50, solids a: triacetylcellulose/plasticizer
  Heat of solution ΔHs: 25.8 kJ/mol
[2]; 74/26, solids a
  Degree of stabilization (ΔH0 − ΔHs): 0 kJ/mol
  Saturation heat of solution solids concentration: 0 wt %
[2]; 74/26, solids a: triacetylcellulose/plasticizer
  Heat of solution ΔHs: 29.2 kJ/mol
[2]; 87/13, solids a: triacetylcellulose/plasticizer
  Degree of stabilization (ΔH0 − ΔHs): 5.86 kJ/mol
[2]; 87/13, solids a: triacetylcellulose/plasticizer (TPP/BDP)
  Heat of solution ΔHs: 25.5 kJ/mol
[2]; [4]
  Degree of stabilization (ΔH0 − ΔHs): 8.4 kJ/mol
  Heat of solution ΔHs: 23 kJ/mol
[2]; [5]
  Degree of stabilization (ΔH0 − ΔHs): 4.6 kJ/mol
  Heat of solution ΔHs: 26.8 kJ/mol
[2]; 92/8, solids a
  Degree of stabilization (ΔH0 − ΔHs): 5.77 kJ/mol
  Saturation heat of solution solids concentration: 7 wt %
[2]; 92/8, solids a: triacetylcellulose/plasticizer
  Heat of solution ΔHs: 24.4 kJ/mol
[2]; 100/0, solids a
  Degree of stabilization (ΔH0 − ΔHs): 5.65 kJ/mol
  Saturation heat of solution solids concentration: 10 wt %
[2]; 100/0, solids a: triacetylcellulose/plasticizer
  Heat of solution ΔHs: 22.1 kJ/mol
[2]; dope Table 12, solvent composition 87/13
  Degree of stabilization: 5.86 kJ/mol
[2]; dope Table 13, solvent composition 92/8
  Degree of stabilization: 5.77 kJ/mol
[2]; dope Table 14, solvent composition 74/26
  Degree of stabilization: 0 kJ/mol
[2]; case c: only the plasticizer present in the system
  Stabilization by solids in the system (in words): is stabilized
[2]; dichloromethane/methanol 50/50 wt %
  Heat of solution ΔH0: 25.8 kJ/mol
[2]; dichloromethane/methanol 74/26 wt %
  Heat of solution ΔH0: 29.2 kJ/mol
[2]; dichloromethane/methanol 87/13 wt %
  Heat of solution ΔH0: 31.4 kJ/mol
[2]; dichloromethane/methanol 92/8 wt %
  Heat of solution ΔH0: 30.2 kJ/mol
[2]; dichloromethane/methanol 100/0 wt %
  Heat of solution ΔH0: 27.8 kJ/mol
[3]; 20° C. and 35° C.
  Solubility in dichloromethane/methanol mixed solvent (in words): excellent
[3]; 20° C., 87/13 vs 74/26
  Difference S0 − S1: 10 wt %
[3]; 20° C., 92/8 vs 91/9
  Difference S0 − S1: 0 wt %
  Ratio S1/S0: 1.000
[3]; 20° C., CH2Cl2/CH3OH 74/26
  Solubility S1 (solids weight concentration at the dissolution limit): 17.5 wt %
[3]; 20° C., CH2Cl2/CH3OH 91/9
  Solubility S1 (solids weight concentration at the dissolution limit): 32.5 wt %
[3]; 20° C., CH2Cl2/CH3OH 92/8
  Solubility S0 (solids weight concentration at the dissolution limit): 32.5 wt %
[3]; 25° C., 87/13 vs 74/26
  Difference S0 − S1: 10 wt %
[3]; 25° C., 92/8 vs 91/9
  Difference S0 − S1: 0 wt %
  Ratio S1/S0: 1.000
[3]; 25° C., CH2Cl2/CH3OH 74/26
  Solubility S1 (solids weight concentration at the dissolution limit): 17.5 wt %
[3]; 25° C., CH2Cl2/CH3OH 87/13
  Solubility S0 (solids weight concentration at the dissolution limit): 27.5 wt %
[3]; 25° C., CH2Cl2/CH3OH 91/9
  Solubility S1 (solids weight concentration at the dissolution limit): 32.5 wt %
[3]; 25° C., CH2Cl2/CH3OH 92/8
  Solubility S0 (solids weight concentration at the dissolution limit): 32.5 wt %
[3]; 35° C., 92/8 vs 91/9
  Difference S0 − S1: 0 wt %
  Ratio S1/S0: 1.000
[3]; 35° C., CH2Cl2/CH3OH 91/9
  Solubility S1 (solids weight concentration at the dissolution limit): 32.5 wt %
[3]; 35° C., CH2Cl2/CH3OH 92/8
  Solubility S0 (solids weight concentration at the dissolution limit): 32.5 wt %
